Reference: ChEMBL document CHEMBL5096222, “Discovery of a Trifluoromethoxy Cyclopentanone Benzothiazole Receptor-Interacting Protein Kinase 1 Inhibitor as the Treatment for Alzheimer's Disease” (J Med Chem, 2022)

Experiments:
HT-29 = experiment: Anti-necroptotic activity in TSZ induced human HT-29 cells assessed as increase in cell viability pretreated with compound followed by TSZ stimulation and measured after 16 hrs by celltiter-glo luminescent cell viability assay; type: functional, cell-based
[1] = Cytotoxicity against human HT-29 cells assessed as reduction in cell viability by celltiter-glo luminescent cell viability assay; type: toxicity, cell-based
[2] = target: T1, Receptor-interacting serine/threonine-protein kinase 1 (Homo sapiens, UniProt Q13546); experiment: Binding affinity to recombinant human wild type partial length RIPK1 (M1 to K305 residues) expressed in bacterial expression system by KINOMEscan TM assay
T1 sequence (Q13546 whole entry): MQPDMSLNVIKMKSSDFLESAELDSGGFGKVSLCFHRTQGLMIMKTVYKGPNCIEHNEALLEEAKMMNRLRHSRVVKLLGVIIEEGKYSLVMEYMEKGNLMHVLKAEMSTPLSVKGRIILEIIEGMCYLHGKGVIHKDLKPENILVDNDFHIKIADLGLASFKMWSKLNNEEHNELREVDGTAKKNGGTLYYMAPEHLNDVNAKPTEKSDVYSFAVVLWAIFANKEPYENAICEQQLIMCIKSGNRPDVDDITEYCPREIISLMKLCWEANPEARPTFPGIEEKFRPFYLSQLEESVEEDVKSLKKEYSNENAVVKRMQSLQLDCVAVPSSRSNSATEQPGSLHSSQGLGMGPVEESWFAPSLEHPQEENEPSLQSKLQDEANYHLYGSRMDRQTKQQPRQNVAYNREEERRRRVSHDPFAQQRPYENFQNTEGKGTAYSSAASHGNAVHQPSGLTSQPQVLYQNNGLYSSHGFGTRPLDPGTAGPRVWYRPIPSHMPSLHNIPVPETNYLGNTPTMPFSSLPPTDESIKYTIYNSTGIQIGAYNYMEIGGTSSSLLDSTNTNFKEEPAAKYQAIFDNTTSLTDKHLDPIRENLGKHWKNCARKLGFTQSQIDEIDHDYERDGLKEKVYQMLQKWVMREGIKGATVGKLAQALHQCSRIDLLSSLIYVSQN

[3] = target: Receptor-interacting serine/threonine-protein kinase 3 (Homo sapiens, UniProt Q9Y572); experiment: Binding affinity to recombinant human wild type partial length RIPK3 (M1 to Q307 residues) expressed in bacterial expression system by KINOMEscan TM assay
Receptor-interacting serine/threonine-protein kinase 3, sequence (Q9Y572 whole entry, the tested form may be a part): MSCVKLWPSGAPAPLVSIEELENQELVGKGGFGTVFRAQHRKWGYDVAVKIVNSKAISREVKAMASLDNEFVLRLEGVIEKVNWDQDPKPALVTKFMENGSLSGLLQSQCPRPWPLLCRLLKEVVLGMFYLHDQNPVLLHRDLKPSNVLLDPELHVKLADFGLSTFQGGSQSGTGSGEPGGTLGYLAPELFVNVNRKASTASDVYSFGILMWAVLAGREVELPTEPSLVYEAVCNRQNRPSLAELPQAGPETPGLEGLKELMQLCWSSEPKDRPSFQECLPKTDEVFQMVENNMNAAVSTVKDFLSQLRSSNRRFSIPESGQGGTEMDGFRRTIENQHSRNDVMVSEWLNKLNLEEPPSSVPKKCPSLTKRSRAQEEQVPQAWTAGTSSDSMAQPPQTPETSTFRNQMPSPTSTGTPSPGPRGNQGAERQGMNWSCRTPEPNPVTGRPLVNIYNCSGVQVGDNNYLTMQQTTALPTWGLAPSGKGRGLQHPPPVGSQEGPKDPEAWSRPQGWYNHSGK

SMILES	Kd [2]	Kd [3]	EC50 (HT-29)	CC50 [1]
O=C(Cc1cccc(OC(F)(F)F)c1)Nc1cc(Oc2cc3nc(NC(=O)C4CC4)sc3cc2F)ccc1F	49 nM	120 nM	82 nM	> 50000 nM
O=C1CCC(C(=O)Nc2nc3cc(Oc4ccc(F)c(NC(=O)Cc5cccc(OC(F)(F)F)c5)c4)c(F)cc3s2)C1 (configuration not stated)	9.6 nM	> 5000 nM	8 nM	> 50000 nM
CN1C(=O)[C@@H](NC(=O)c2nnc(Cc3ccccc3)[nH]2)COc2ccccc21 [GSK2982772]	–	–	–	> 50000 nM

Further lines, with some results ahead:

Kd [2]	Kd [3]	SMILES	EC50 (HT-29)	CC50 [1]
97 nM	77 nM	O=C(Cc1cccc(C(F)(F)F)c1)Nc1cc(Oc2cc3nc(NC(=O)C4CC4)sc3cc2F)ccc1F	170 nM	36500 nM
12 nM	> 5000 nM	O=C(Cc1cccc(OC(F)(F)F)c1)Nc1cc(Oc2cc3nc(NC(=O)C4CCOC4)sc3cc2F)ccc1F (configuration not stated)	13 nM	> 50000 nM
